This is an account of results in patent US9481674B1, “Dihydropyrrolopyridine inhibitors of ROR-gamma” (Vitae Pharmaceuticals, Inc., priority 2016, dated 2016).

In series [1] the target is T1, hERG potassium ion channel (Homo sapiens, UniProt Q12809).
T1 construct: expressed in transfected cells; host or cells: HEK293
The series is described as follows: hERG Assay (Assay 4). The series is classed as cell-based. The note with it: HEK293 cells stably transfected with hERG cDNA, pH 7.4, comparator compounds, Table 4, compound at 3 μM. The procedure:
Compounds of the invention were tested in vitro against the hERG (human ether-à-go-go-related gene) potassium ion channel (a surrogate for IKr, the rapidly activating delayed rectifier cardiac potassium ion channel).
The buffer was HEPES-buffered physiological saline (HB-PS) solution composed of: 137 mM NaCl, 4.0 mM KCl, 1.8 mM CaCl2, 1 mM MgCl2, 10 mM HEPES, 10 mM glucose, pH adjusted to 7.4 with NaOH, and 0.3% DMSO. Chemicals used in solution preparation were purchased from Sigma-Aldrich (St. Louis, Mo.), unless otherwise noted, and were of ACS reagent grade purity or higher.
HEK (human embryonic kidney) 293 cells were stably transfected with hERG cDNA.
For the patch clamp experiment, onset and steady state inhibition of hERG potassium current was measured using a pulse pattern with fixed amplitudes (depolarization: +20 mV for 2 s; repolarization: −50 mV for 2 s) repeated at 10 s intervals from a holding potential of −80 mV. Peak tail current was measured during the 2 s step to −50 mV. A steady state was maintained for at least 30 seconds before applying compound or positive control (cisapride). Peak tail currents were measured until a new steady state was achieved.
Data acquisition and analyses were performed using the suite of pCLAMP® (ver. 8.2) programs (MDS Analytical Technologies, Sunnyvale, Calif.). […]

The test system of another series is IL-17A production. The series is described as follows: Human Whole Blood Assay (Assay 3). The series is classed as cell-based. The note with it: comparator compounds, Table 4, IL-17A, read-out: 50% Human Whole Blood Assay IC50, nM^B (Assay 3). The method, then:
Human Whole Blood Assay (Assay 3)
Compounds of the invention were tested in the human whole blood assay to measure their effects on IL-17A production as determined by cytokine secretion into 50% blood/media supernatant. Mixtures of sodium heparinized whole blood (isolated from healthy human donors) and the T cell activator CytoStim, in the presence or absence of compound, were plated in sterilized, tissue culture-treated 24-well plates. Specifically, the mixtures in each well were as follows: (1) 500 μL of whole blood, (2) 250 μL of compound diluted into RPMI-1640 media containing 10% HyClone™ FCS (Thermo Fisher Scientific, Waltham, Mass.), Gibco® Pen/Strep and Gibco® NEAA (Life Technologies, Grand Island, N.Y.), and (3) 250 μL of CytoStim (Miltenyi Biotech, Germany) diluted to a final concentration of 10 μL/mL in complete cell culture medium.
IL-17A cytokine expression was determined using 25 μL of the transferred supernatant diluted with 25 μL of Diluent 43 from the Human IL-17A V-PLEX™ kit (cat. # K151RFD-4, Meso Scale Discovery, Rockville, Md.). The assay was performed according to the manufacturer's instructions using included reagents. The IL-17A V-PLEX™ plates were read using the Meso Scale Discovery Imager (Model 1200).

T1 sequence (Q12809 whole entry): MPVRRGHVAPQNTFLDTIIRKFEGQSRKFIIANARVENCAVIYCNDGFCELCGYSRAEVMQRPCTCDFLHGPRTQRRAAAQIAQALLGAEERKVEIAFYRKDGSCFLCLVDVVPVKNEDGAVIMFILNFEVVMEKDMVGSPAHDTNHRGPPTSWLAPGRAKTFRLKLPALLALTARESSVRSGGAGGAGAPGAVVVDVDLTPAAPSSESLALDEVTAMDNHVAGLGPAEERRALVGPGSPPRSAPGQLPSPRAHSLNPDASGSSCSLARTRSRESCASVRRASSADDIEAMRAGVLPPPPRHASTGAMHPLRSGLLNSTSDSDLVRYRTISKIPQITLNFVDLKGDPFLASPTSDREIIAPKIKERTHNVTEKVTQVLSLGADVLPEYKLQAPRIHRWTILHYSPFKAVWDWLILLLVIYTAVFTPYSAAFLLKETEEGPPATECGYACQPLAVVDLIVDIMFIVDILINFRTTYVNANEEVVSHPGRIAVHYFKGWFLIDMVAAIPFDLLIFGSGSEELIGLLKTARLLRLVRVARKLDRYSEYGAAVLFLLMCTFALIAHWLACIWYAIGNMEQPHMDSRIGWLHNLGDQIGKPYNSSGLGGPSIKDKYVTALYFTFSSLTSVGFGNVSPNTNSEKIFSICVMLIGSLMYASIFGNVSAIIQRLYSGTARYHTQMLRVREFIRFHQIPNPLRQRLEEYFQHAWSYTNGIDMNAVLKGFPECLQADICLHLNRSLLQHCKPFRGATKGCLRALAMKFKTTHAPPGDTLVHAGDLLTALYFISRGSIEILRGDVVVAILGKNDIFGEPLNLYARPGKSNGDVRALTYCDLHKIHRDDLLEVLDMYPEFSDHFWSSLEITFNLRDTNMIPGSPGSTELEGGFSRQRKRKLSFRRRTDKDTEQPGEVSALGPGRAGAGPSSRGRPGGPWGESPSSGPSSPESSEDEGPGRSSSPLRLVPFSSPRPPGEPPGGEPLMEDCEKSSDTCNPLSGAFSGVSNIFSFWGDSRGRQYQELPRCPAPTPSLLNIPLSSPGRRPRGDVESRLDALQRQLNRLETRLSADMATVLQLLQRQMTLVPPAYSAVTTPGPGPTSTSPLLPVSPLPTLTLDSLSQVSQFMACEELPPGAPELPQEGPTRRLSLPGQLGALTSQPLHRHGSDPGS

For `CCS(=O)(=O)c1ccc(CNC(=O)c2cnc3c(c2)CN(C[C@H]2CC[C@H](C(F)(F)F)CC2)[C@H]3C(C)C)cc1`, the inhibition at 3 µM in series [1] was 57%. Turning to `CCS(=O)(=O)c1ccc(CNC(=O)c2cnc3c(c2)CN(C[C@H]2CC[C@H](C(F)(F)F)CC2)[C@H]3C(C)C)nc1` [reference compound], the inhibition at 3 µM in series [1] amounted to 45.4%. The IC50 in the series with IL-17A production is over 200 nM.
